Source: patent publication US9181172B2, “Rhein conjugates, preparation method thereof and their uses in producing medicines for treating diabetic nephrosis, intestinal adhesion and osteoarthritis” (priority 2005, dated 2015)
Where a name gives a salt, the structure may show the parent alone.

Legend:
Type in all cases: in vivo
[1] = test system: rabbits' ear marginal veins; test: Safety of hydro-acupuncture injection: irritation of rabbits' ear marginal vein; conditions: rabbit, in vivo
Source text: In rabbits' ear marginal vein aseptic operation, rhein sodium salt, rhein arginine conjugates and 0.9% sodium chloride injection liquid were slowly filled into the veins respectively every two days for three consecutive times.

diabetic rats = test: Diabetic nephrosis of obese diabetic rats (high-fat high-sugar diet plus STZ); conditions: six months, ig 65 mg/kg
Procedure: Animal model of diabetic rats: after one month of high-fat high-sugar diet, the rats (about 180 g) were injected by sub-pathogenic dose (25 mg/kg) of streptozotocin (STZ) to induce the occurrence of diabetes. The model has the characteristics of moderate hyperglycemia, hyperlipidemia and insulin resistance as well as pathological changes of typical diabetic nephrosis.
• 1. Conventional feedstuff control group: distilled water. • 2. Diabetes model group: distilled water. • 3. Rhein lysine diabetes treatment group: a month after STZ injection, rhein lysine complex [prepared with distilled water, intragastric infusion for rats according to 90 mg/kg (0.209 mmol/kg) dose] was administered referred to treatment group 1. • 4. Rhein sodium diabetes treatment group: a month after STZ injection, rhein sodium [prepared with distilled water, intragastric infusion for rats, according to 65 mg/kg (0.212 mmol/kg) dose] was administered, referred to treatment group 2. • 5. Rhein lysine diabetes prevention group: one week after STZ injection, rhein lysine conjugates were administered [prepared with distilled water and intragastric infusion for rats, according to 90 mg/kg (0.209 mmol/kg) dose], referred to prevention group 1. • 6. Rhein sodium diabetes prevention group: one week after STZ injection, rhein sodium were administered [prepared with distilled water and intragastric infusion for rats, according to 65 mg/kg (0.212 mmol/kg ) dose], referred to prevention group 2.

[2] = test system: obese rats of high-fat and high-sugar diet; test: Body weight of obese rats of high-fat and high-sugar diet; conditions: Group E
Source text: Group A: conventional diet, 4 weeks later, started to carry on intragastric administration, and the same volume of distilled water as the control, once daily, three weeks in succession.
Group B: high-fat high-sugar diet, 4 weeks later, started to carry on intragastric administration, and the same volume of distilled water as the model control, once daily, three weeks in succession.
Group C: high-fat high-sugar diet, 4 weeks later, started to carry on intragastric administration of rhein lysine conjugates [dose: 90 mg/kg (0.209 mmol/kg), prepared by distilled water], once daily, three weeks in succession.
Group D: high-fat high-sugar diet, 4 weeks later, started to carry on intragastric administration of rhein lysine conjugates [dose: 45 mg/kg (0.105 mmol/kg), prepared by distilled water], once daily, three weeks in succession.
Group E: high-fat high-sugar diet, 4 weeks later, started to carry on intragastric administration of rhein sodium [dose: 65 mg/kg (0.212 mmol/kg), prepared by distilled water], once daily, three weeks in succession.

rats = test: Carrageenan-induced acute pleurisy exudation and leukoplania in rats; conditions: intraperitoneal 20 mg/kg, four hours after carrageenan
Procedure: Forty male rats of 200±20 g weight were selected and divided into five groups, namely, model control group, indomethacin group, rhein sodium group, rhein glucosamine large dose group and small dose group. Eight rats for each group. The rats were administered with medicines by intraperitoneal administration, one hour later, the rats were induced with acute pleurisy by carrageenan according to the method in the literature [Xu Shuyun, Methodology in Pharmacological Experiment (the 3rd version): 916]. Four hours later, the rats were killed and the volume of pleural effusion and total white cell count were measured.

mice = test: Immune function in mice (clearance index, phagocytic index); conditions: ig 40 mg/kg, 3 days
Procedure: Fifty Kunming mice, half male and half female, weighing 18-22 g each were selected and randomly divided into five groups, namely, model control group, cyclophosphamide group, rhein sodium group, rhein glucosamine large dose group and small dose group, 10 mice for each group. The mice were administered with medicines by intragastric administration, 0.2 ml/10 g body weight, once every day and administered for 3 days in succession. After the mice were administered with medicines, 30 minutes later, test was carried on according to the method in the literature [Xu Shuyun, Methodology in Pharmacological Experiment (the 3rd version): 934]. The […] and corrected phagocytic index α were calculated, and t-test was conducted for statistical analysis.

Structure (SMILES): O=C(O)c1cc(O)c2c(c1)C(=O)c1cccc(O)c1C2=O [Rhein sodium salt, rhein sodium salt]
- biopsy of rabbits' ear marginal vein [1]: slight with partial endothelial cell necrosis and abscission, and inflammatory response of the surrounding tissues
- irritation on rabbits' ear marginal veins [1]: has irritation
- Urine protein (diabetic rats; preventive administration from one week after STZ): 11.54 ± 2.98 mg/24 h
- Kidney weight index (double kidney weight/body weight × 10^4) (diabetic rats; preventive administration): 5.21 ± 0.68
- Serum total cholesterol (diabetic rats; preventive administration): 2.89 ± 0.31 mM
- Serum triacylglycerol (diabetic rats; preventive administration): 1.68 ± 0.45
- Steady blood sugar level (diabetic rats; preventive administration): 6.7 ± 0.8 mmol/L
- Steady insulin level (diabetic rats; preventive administration): 72.6 ± 3.6 uU/ml
- Weight (diabetic rats; preventive administration): 243 ± 12 g
- blood sugar (diabetic rats; preventive administration): 15.08 ± 5.7 mmol/L
- Urine protein (diabetic rats; treatment from a month after STZ): 16.15 ± 7.71 mg/24 h
- Kidney weight index (double kidney weight/body weight × 10^4) (diabetic rats; treatment): 6.9 ± 0.83
- Serum total cholesterol (diabetic rats; treatment): 3.71 ± 0.63 mM
- Serum triacylglycerol (diabetic rats; treatment): 1.66 ± 0.47
- Steady blood sugar level (diabetic rats; treatment): 5.9 ± 0.8 mmol/L
- Steady insulin level (diabetic rats; treatment): 81 ± 4.5 uU/ml
- Weight (diabetic rats; treatment): 229 ± 16 g
- blood sugar (diabetic rats; treatment): 17.3 ± 3.3 mmol/L
- The body weight increased 7 weeks after high-sugar high-fat diet ([2]; after three weeks ig 65 mg/kg once daily): 17.1 ± 4.1 g
- The body weight increased 4 weeks after high-sugar high-fat diet ([2]; before start of ig 65 mg/kg): 15.8 ± 4.3 g
- Volume of exudation fluid (rats): 0.33 ± 0.12
- WBC (rats): 3.98 ± 1.64 ×109/L
- Clearance index (k) (mice): 0.0272 ± 0.0124
- Phagocytic index (α) (mice): 4.9134 ± 0.7498
